Here are results for 18 compounds from ChEMBL document CHEMBL6115013, “Design, synthesis, and biological evaluation of novel azaspirooxindolinone derivatives as potent inhibitors of ITK and BTK-dependent cancers” (Bioorg Med Chem, 2025).

Structures are written as SMILES.

A word on the IC50: it is the concentration at which inhibition is half-maximal.

The subject of data set [1] is A549. Briefly: Cytotoxicity against ITK/BTK null human A549 cells assessed as inhibition of cell growth by MTS assay.
In data set [2] the test system is HCT-116. In words: Cytotoxicity against ITK/BTK null human HCT-116 cells assessed as inhibition of cell growth by MTS assay.
The subject of data set [3] is U2OS. Briefly: Cytotoxicity against ITK/BTK null human U2OS cells assessed as inhibition of cell growth by MTS assay.
In data set [4] the test system is Jurkat. In words: Cytotoxicity against ITK positive human Jurkat cells assessed as inhibition of cell growth by MTS assay.
Data set [5] relates to CCRF-CEM. Briefly: Cytotoxicity against ITK positive human CCRF-CEM cells assessed as inhibition of cell growth by MTS assay.
Data set [6] relates to Ramos. In words: Cytotoxicity against BTK positive human Ramos cells assessed as inhibition of cell growth by MTS assay. On the technique in general: Tetrazolium assays rely on reduction of a dye to a coloured formazan, in cell work by metabolically active cells.
In data set [7] the test system is K562. Briefly: Cytotoxicity against BTK positive human K562 cells assessed as inhibition of cell growth by MTS assay.
Data set [8] can be described thus: Cytotoxicity against ITK/BTK null human MRC5 cells assessed as inhibition of cell growth by MTS assay. It counts as toxicity, cell-based.
A short description of data set [9]: Cytotoxicity against ITK/BTK null human BJ cells assessed as inhibition of cell growth by MTS assay. It counts as toxicity, cell-based.
Data set [10] deals with T1, Tyrosine-protein kinase ITK/TSK (Homo sapiens, UniProt Q08881).
T1 sequence (Q08881 whole entry): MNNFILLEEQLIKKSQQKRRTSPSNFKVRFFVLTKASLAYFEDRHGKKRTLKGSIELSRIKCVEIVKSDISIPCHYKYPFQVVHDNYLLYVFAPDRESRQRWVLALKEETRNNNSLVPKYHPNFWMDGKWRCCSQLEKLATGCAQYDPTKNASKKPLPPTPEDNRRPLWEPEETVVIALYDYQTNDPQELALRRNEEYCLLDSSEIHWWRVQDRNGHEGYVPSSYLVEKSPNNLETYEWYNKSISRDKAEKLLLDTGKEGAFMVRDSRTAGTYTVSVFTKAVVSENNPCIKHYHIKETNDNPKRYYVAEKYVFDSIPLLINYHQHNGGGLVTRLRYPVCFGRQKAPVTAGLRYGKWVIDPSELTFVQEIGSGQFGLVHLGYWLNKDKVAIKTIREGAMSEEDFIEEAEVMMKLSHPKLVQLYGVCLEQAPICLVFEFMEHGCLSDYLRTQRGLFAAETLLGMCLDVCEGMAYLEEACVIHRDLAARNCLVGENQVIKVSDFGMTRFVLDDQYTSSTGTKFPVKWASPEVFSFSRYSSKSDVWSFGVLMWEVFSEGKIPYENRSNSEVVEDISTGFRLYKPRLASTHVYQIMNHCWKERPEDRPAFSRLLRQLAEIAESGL
In words: Inhibition of human ITK using poly (Glu:Tyr) as substrate in presence of ATP by ADP-glo kinase assay. (In general: ADP-Glo turns the ADP formed in a reaction into a luminescent signal.)

Data set [11] concerns MOLT-4. In words: Antiproliferative activity against human MOLT-4 cells. It counts as functional, cell-based.
For data set [12], the system named is Jurkat. Briefly: Antiproliferative activity against human Jurkat cells. It is filed as functional, cell-based.
Data set [13] deals with CCRF-CEM. In words: Antiproliferative activity against human CCRF-CEM cells. It counts as functional, cell-based.
Data set [14] relates to CEM-DNR. In words: Antiproliferative activity against human CEM-DNR cells. It counts as functional, cell-based.
Data set [15] is described as follows: Antiproliferative activity against human K562-Tax cells. It is filed as functional, cell-based.
Data set [16] has as its system Ramos. In words: Antiproliferative activity against human Ramos cells. It counts as functional, cell-based.

Take `O=C1Nc2ncc(-c3ccc4c(c3)OCO4)cc2C12CCN(S(=O)(=O)C(F)(F)F)CC2`: the IC50 in [1], in data set [2], in data set [3], in data set [4], in [5] and in data set [6] was > 50 µM in each case. Moreover, the IC50 in data set [7], in data set [8] and in data set [9] was > 50 µM throughout.

With `CC(F)(F)C(=O)N1CCC2(CC1)C(=O)Nc1ncc(-c3ccc4c(c3)OCO4)cc12`, the IC50 is > 50 µM in [1]; > 50 µM in data set [2]; > 50 µM in data set [3]; 3.58 µM in data set [4]; 17.2 µM in data set [5]; 3.06 µM in [6]. In addition, the IC50 in data set [7] was > 50 µM; in data set [8] it was > 50 µM; in data set [9], > 50 µM; in data set [10], 0.91 µM.

For the compound `O=C(O)C1(C(=O)N2CCC3(CC2)C(=O)Nc2ncc(-c4ccc5c(c4)OCO5)cc23)CC1`, the IC50 in data set [1], in [2], in data set [3], in data set [4], in data set [5] and in [6] was > 50 µM throughout. Further, the IC50 in data set [7], in data set [8] and in data set [9] was > 50 µM in each case.

With `CC(C)(O)C(=O)N1CCC2(CC1)C(=O)Nc1ncc(-c3ccc4c(c3)OCO4)cc12`, the IC50 in data set [1], in [2], in data set [3], in data set [4], in data set [5] and in data set [6] was > 50 µM in each case. Besides, the IC50 in data set [7], in [8] and in [9] was > 50 µM throughout.

In the case of `CC(C)(C#N)C(=O)N1CCC2(CC1)C(=O)Nc1ncc(-c3ccc4c(c3)OCO4)cc12`, the IC50 in data set [1] was > 50 µM; in [2], > 50 µM; in data set [3], > 50 µM; in [4] it was 9.36 µM; in data set [5], 14.3 µM; in data set [6], 10.1 µM. In addition, the IC50 in data set [7], in data set [8] and in [9] was > 50 µM throughout.

Take `C=CC(=O)N1CCC2(CC1)C(=O)Nc1ncc(-c3ccc4c(c3)OCO4)cc12`: the IC50 is > 50 µM in data set [1]; > 50 µM in data set [2]; > 50 µM in data set [3]; > 50 µM in data set [4]; 13.5 µM in [5]; > 50 µM in data set [6]. In addition, the IC50 in [7], in [8] and in data set [9] was > 50 µM each time.

For `O=C1Nc2ncc(-c3ccc4c(c3)OCO4)cc2C12CCN(C(=O)C1(C(F)(F)F)CC1)CC2`, the IC50 is > 50 µM in [1]; > 50 µM in data set [2]; > 50 µM in [3]; 29.4 µM in [4]; 19.5 µM in data set [5]; 1.82 µM in data set [6]. Also, the IC50 in data set [7], in [8] and in data set [9] was > 50 µM in each case.

`COC(=O)C1(C(=O)N2CCC3(CC2)C(=O)Nc2ncc(-c4cc(OC)c(OC)c(OC)c4)cc23)CC1`: the IC50 in [11], in [12], in [13], in data set [14], in data set [15] and in data set [16] was > 50 µM in each case.

As to `C=CC(=O)N1CCC[C@@H](n2nc(-c3ccc(Oc4ccccc4)cc3)c3c(N)ncnc32)C1` [IBRUTINIB], the IC50 in data set [8] came out at 27.9 µM; in data set [9], 28.9 µM.

For `CC(C)(F)C(=O)N1CCC2(CC1)C(=O)Nc1ncc(-c3ccc4c(c3)OCO4)cc12`, the IC50 amounted to 2.49 µM in data set [12]; 3.79 µM in [13]; 6.01 µM in data set [14]; 3.68 µM in data set [15]; 16.4 µM in data set [16].

For `O=C(N1CCC2(CC1)C(=O)Nc1ncc(-c3ccc4c(c3)OCO4)cc12)C1(F)CC1`, the IC50 in [12] came to 2.25 µM; in data set [13], 7.26 µM; in data set [14], 11.9 µM; in data set [15], 6.09 µM; in data set [16], 24.3 µM.

Take `C=C(F)C(=O)N1CCC2(CC1)C(=O)Nc1ncc(-c3ccc4c(c3)OCO4)cc12`: the IC50 is > 50 µM in [1]; > 50 µM in data set [2]; 18.9 µM in data set [3]; 4.16 µM in data set [4]; 14.1 µM in [5]; 1.38 µM in [6]. In addition, the IC50 was > 50 µM in data set [7], > 50 µM in data set [8], > 50 µM in data set [9] and > 10 µM in [10].

In the case of `COC(=O)C1(C(=O)N2CCC3(CC2)C(=O)Nc2ncc(-c4ccc5c(c4)OCO5)cc23)CC1`, the concentration for half-maximal inhibition (IC50) in [11] was 28.8 µM; in data set [12] it was 14.8 µM; in [13], 15.2 µM; in data set [14], 20.4 µM; in data set [15] it was 12.5 µM; in data set [16], 23.9 µM.

On to `CCOC(=O)C(C)(C)C(=O)N1CCC2(CC1)C(=O)Nc1ncc(-c3ccc4c(c3)OCO4)cc12`, for which the IC50 was > 50 µM in data set [1]; > 50 µM in data set [2]; > 50 µM in data set [3]; 29.2 µM in [4]; > 50 µM in data set [5]; > 50 µM in data set [6]. For the same compound, the IC50 in data set [7], in [8] and in data set [9] was > 50 µM in each case.

Regarding `N#CC1(C(=O)N2CCC3(CC2)C(=O)Nc2ncc(-c4ccc5c(c4)OCO5)cc23)CC1`, the IC50 in data set [1] is > 50 µM; in data set [2], > 50 µM; in [3], > 50 µM; in [4] it was 50 µM; in [5], > 50 µM; in data set [6], 1.42 µM. The IC50 in data set [7], in [8] and in data set [9] was > 50 µM throughout.

As for `O=C(N1CCC2(CC1)C(=O)Nc1ncc(-c3ccc4c(c3)OCO4)cc12)C1(CF)CC1`, in data set [13], half-maximal inhibition (IC50) required 25.5 µM.

As for `O=C(N1CCC2(CC1)C(=O)Nc1ncc(-c3ccc4c(c3)OCO4)cc12)C(F)(F)F`, the IC50 in data set [1] is > 50 µM; in data set [2] it was > 50 µM; in data set [3] it was > 50 µM; in [4] it was 10.8 µM; in [5] it was 20.7 µM; in data set [6], > 50 µM. Also, the half-maximal inhibitory concentration (IC50) in [7], in data set [8] and in data set [9] was > 50 µM in each case.

In the case of `O=C(N1CCC2(CC1)C(=O)Nc1ncc(-c3ccc4c(c3)OCO4)cc12)C1(O)CC1`, the IC50 in data set [1], in data set [2], in data set [3], in [4], in data set [5] and in data set [6] was > 50 µM in each case. The half-inhibitory concentration (IC50) in [7], in [8] and in data set [9] was > 50 µM throughout.
